Data on 9 compounds can be found in patent US7109333B2, “Heterocyclic compounds” (SmithKline Beecham Corporation, priority 1998, dated 2006).

Data set [1] addresses T1, EGFr isolated from solubilised A431 cell membranes (Homo sapiens, UniProt P00533).
T1 construct: EGFr isolated from solubilised A431 cell membranes; endogenous in cells; host or cells: A431 cell membranes (solubilised)
The data set is described as follows: Substrate phosphorylation assay, EGF-r, assay (a) (time-resolved fluorescence). The data set is classed as biochemical. The source says: (§1) The substrate phosphorylation assays use baculovirus expressed, recombinant constructs of the intracellular domains of c-erbB-2 and c-erbB-4 that are constitutively active and EGFr isolated from solubilised A431 cell membranes. The method measures the ability of the isolated enzymes to catalyse the transfer of the g-phosphate from ATP onto tyrosine residues in a biotinylated synthetic peptide (Biotin-[…]. Substrate phosphorylation was detected following either of the following two procedures: a.) c-ErbB-2, c-ErbB4 or EGFr were incubated for 30 minutes, at room temperature, with 10 mM MnCl2, 10 mM ATP, 5 mM peptide, and test compound (diluted from a 5 mM stock in DMSO, final DMSO concentration is 2%) in 40 mM HEPES buffer, pH 7.4. The reaction was stopped by the addition of EDTA (final concentration 0.15 mM) and a sample was transferred to a streptavidin-coated 96-well plate. The plate was washed and the level of phosphotyrosine on the peptide was determined using a Europium-labelled antiphosphotyrosine antibody and quantified with a time-resolved fluorescence technique. b.) ErbB2 was incubated for 50 minutes at room temperature with 15 mM MnCl2, 2 mM ATP, 0.25 mCi [γ-^33P] ATP/well, 5 mM peptide substrate, and test compound (diluted from a 10 mM stock in DMSO, final DMSO concentration is 2%) in 50 mM MOPS pH 7.2. The reaction was terminated by the addition of […] of PBS containing 2.5 mg/ml streptavidin-coated SPA beads (Amersham Inc.), 50 mM ATP, 10 mM EDTA and 0.1% TX-100. The microtitre plates were sealed and SPA beads were allowed to settle for at least six hours. The SPA signal was measured using a Packard Topcount 96-well plate scintillation counter (Packard Instrument Co., Meriden, Conn.).

In data set [2] the test system is N87 gastric tumor cell line. The data set is described as follows: Methylene blue growth inhibition assay, N87. The class given is cell-based. The settings on record: Homo sapiens, 72 h; N87, 3 days; read-out: Cell Proliferation N87, IC50. How it is done: (§2) Human breast (BT474), head and neck (HN5) and gastric tumor (N87) cell lines were cultured in low glucose DMEM (Life Technologies 12320–032) containing 10% fetal bovine serum (FBS) at 37° C. in a humidified 10% CO2, 90% air incubator. The SV40 transformed human mammary epithelial cell line HB4a was transfected with either human H-ras cDNA (HB4a r4.2) or the human c-erbB2 cDNA (HB4a c5.2). The HB4a clones were cultured in RPMI containing 10% FBS, insulin (5 μg/ml), hydrocortisone (5 μg/ml), supplemented with the selection agent hygromycin B (50 μg/ml). Cells were harvested using trypsin/EDTA, counted using a haemocytometer, and plated in […] of the appropriate media, at the following densities, in a 96-well tissue culture plate (Falcon 3075): BT474 10,000 cells/well, HN5 3,000 cells/well, N87 10,000 cells/well, HB4a c5.2 3,000 cells/well, HB4a r4.2 3,000 cells/well. The next day, compounds were diluted in DMEM containing […] gentamicin, at twice the final required concentration, from 10 mM stock solutions in DMSO. […] of these dilutions were added to the […] of media currently on the cell plates. Medium containing 0.6% DMSO was added to control wells. Compounds diluted in DMEM were added to all cell lines, including the HB4a r4.2 and HB4a c5.2 cell lines. The final concentration of DMSO in all wells was 0.3%. Cells were incubated at 37° C., 10% CO2 for 3 days. Medium was removed by aspiration. Cell biomass was estimated by staining cells with 100 μl per well methylene blue (Sigma M9140, 0.5% in 50:50 ethanol:water), and incubation at room temperature for at least 30 minutes. Stain was removed, and the plates rinsed under a gentle stream of water, and air-dried. To release stain from the cells 100 μl of solubilization solution was added (1% N-lauroyl sarcosine, Sodium salt, Sigma L5125, in PBS), and plates were shaken gently for about 30 minutes. Optical density at 620 nm was measured on a microplate reader. Percent inhibition of cell growth was calculated relative to vehicle treated control wells. Concentration of compound that inhibits 50% of cell growth (IC50) was interpolated using nonlinear regression (Levenberg-Marquardt) and the equation, y=Vmax*(1−(x/(K+x)))+Y2, where “K” was equal to the IC50.

Data set [3] has as its system BT474 breast tumor cell line. The data set is described as follows: Methylene blue growth inhibition assay, BT474. The data set is classed as cell-based. The settings on record: Homo sapiens, BT-474, 72 h; BT474, 3 days; read-out: Cell Proliferation BT474, IC50. How it is done:
as §2

The target in data set [4] is T2, c-erbB-2 (Homo sapiens, UniProt P04626).
T2 construct: baculovirus expressed, recombinant constructs of the intracellular domains of c-erbB-2 and c-erbB-4; made in house
T2 sequence (P04626 676-1255 limits assumed): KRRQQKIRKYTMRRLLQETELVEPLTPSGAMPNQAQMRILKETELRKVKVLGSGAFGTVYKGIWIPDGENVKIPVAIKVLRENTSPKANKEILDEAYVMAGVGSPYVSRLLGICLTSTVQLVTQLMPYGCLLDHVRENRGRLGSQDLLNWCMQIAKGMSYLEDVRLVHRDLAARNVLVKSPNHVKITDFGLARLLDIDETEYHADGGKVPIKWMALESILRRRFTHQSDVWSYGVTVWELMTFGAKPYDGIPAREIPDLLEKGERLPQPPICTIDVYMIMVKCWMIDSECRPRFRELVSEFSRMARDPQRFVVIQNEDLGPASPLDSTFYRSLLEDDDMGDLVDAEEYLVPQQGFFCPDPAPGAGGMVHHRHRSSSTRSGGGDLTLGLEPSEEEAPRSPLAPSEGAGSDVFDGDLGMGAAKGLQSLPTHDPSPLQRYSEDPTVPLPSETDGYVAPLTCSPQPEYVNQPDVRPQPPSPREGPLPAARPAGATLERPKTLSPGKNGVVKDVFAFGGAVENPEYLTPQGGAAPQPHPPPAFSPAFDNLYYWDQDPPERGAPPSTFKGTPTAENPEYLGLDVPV
In words: Substrate phosphorylation assay, erbB2, assay (b) (SPA, 33P-ATP). The settings on record: Tables 1A and 1B. The class given is biochemical.
Description: as §1

Data set [5] concerns HN5 head and neck tumor cell line. In words: Methylene blue growth inhibition assay, HN5. The class given is cell-based. The settings on record: Homo sapiens, 72 h; HN5, 3 days; read-out: Cell Proliferation HN5, IC50. The procedure: as §2
Data set [6] concerns HB4a r4.2 (HB4a transfected with human H-ras cDNA). In words: Methylene blue growth inhibition assay, HB4a ras. The class given is cell-based. The settings on record: 72 h, HB4a r4.2, 3 days, read-out: Cell Proliferation HB4a ras, IC50. How it is done: as §2
Data set [7] relates to HB4a c5.2 (HB4a transfected with human c-erbB2 cDNA). The data set is described as follows: Methylene blue growth inhibition assay, HB4a erbB2. The class given is cell-based. The settings on record: 72 h, HB4a c5.2, 3 days, read-out: Cell Proliferation HB4a erbB2, IC50. How it is done:
as §2

A short description of data set [8]: Major metabolites: liver S-9 homogenate incubation, LC-MS metabolite identification. The class given is in vitro ADME, Sprague Dawley rat and human. The settings on record: liver S-9 (rat, human), 10 μM, 60 min, 37° C. How it is done:
Liver S-9 homogenates (5 mg/mL protein concentration) from prepared pooled male Sprague Dawley rat livers and pooled human livers (XenoTech, LLC, Kansas City, Kans.) were incubated in 96-well polypropylene plates with representative examples selected from examples 1 to 40 (10 μM) in a total volume of 0.5 mL. Stock solutions of these compounds were prepared in DMSO at a concentration of 1 mM to maintain a <1% final DMSO concentration for each reaction. Enzymatic incubations contained cofactors (5.71 mM NADPH, 7.14 mM glucose-6-phosphate, 7.14 mM UDPGA, 47.1 mM potassium chloride, and 11.4 mM magnesium chloride in 0.1 M potassium phosphate buffer, pH 7.4). Control samples were aspirated from the reaction samples at time zero and placed immediately into 2 volumes of ice-chilled acetonitrile. Sample reaction plates were incubated for 60 min in a shaker incubator maintained at 37° C. supplied with O2. Reactions were terminated by addition of 2 volumes of ice-chilled acetonitrile. All samples were vortexed and centrifuged at 2000×g for 10 min. The supernatant was removed and analyzed by LC-MS. The metabolite identification work was done by using reversed-phase HPLC coupled with ion-trap mass spectroscopy.

Where a name gives a salt, the structure may show the parent alone.

T1 sequence (P00533 25-1210): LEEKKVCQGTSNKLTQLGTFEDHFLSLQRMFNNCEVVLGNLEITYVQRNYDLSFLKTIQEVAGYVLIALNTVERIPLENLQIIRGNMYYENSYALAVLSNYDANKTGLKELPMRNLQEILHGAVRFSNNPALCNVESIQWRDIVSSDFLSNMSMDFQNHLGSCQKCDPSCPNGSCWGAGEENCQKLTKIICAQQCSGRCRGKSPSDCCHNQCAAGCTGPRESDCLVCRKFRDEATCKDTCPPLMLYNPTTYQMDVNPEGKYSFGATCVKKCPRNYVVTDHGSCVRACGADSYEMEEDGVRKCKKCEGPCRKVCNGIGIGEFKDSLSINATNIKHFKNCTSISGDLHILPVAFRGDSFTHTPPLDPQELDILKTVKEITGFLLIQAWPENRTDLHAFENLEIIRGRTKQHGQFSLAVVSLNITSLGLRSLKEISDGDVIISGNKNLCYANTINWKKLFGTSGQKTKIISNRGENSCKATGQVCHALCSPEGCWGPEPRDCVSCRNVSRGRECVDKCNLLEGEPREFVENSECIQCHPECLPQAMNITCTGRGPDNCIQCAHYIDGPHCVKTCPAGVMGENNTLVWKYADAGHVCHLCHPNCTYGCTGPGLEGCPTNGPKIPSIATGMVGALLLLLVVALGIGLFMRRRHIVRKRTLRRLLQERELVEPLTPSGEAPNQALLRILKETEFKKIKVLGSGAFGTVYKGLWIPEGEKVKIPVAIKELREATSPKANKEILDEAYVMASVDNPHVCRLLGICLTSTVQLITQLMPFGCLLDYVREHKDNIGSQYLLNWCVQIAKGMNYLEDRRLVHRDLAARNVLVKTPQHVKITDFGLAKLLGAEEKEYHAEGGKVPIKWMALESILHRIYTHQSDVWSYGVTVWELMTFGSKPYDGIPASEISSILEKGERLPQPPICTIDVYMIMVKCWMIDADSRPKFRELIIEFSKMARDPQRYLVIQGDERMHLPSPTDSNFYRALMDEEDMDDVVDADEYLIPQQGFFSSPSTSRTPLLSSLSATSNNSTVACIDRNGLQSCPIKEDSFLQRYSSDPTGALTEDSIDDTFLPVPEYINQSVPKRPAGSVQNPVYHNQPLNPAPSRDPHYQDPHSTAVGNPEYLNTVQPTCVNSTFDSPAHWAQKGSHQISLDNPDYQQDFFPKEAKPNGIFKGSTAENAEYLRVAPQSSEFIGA

As for `CS(=O)(=O)CCNCc1ccc(-c2cc3c(Nc4ccc(OCc5ccc(F)cc5)cc4)ncnc3cn2)o1` [Example 1, (4-(4-Fluorobenzyloxy)-phenyl)-(6-(5-((2-methanesulphonyl-ethylamino)methyl)-furan-2-yl)-pyrido[3,4-d]pyrimidin-4-yl)-amine dihydrochloride], the IC50 in data set [1] was less than 0.1 µM; in data set [2], less than 5 µM; in data set [3], less than 5 µM; in data set [4], less than 0.1 µM; in data set [5], less than 5 µM; in data set [6] it was 25 to 50 µM. Moreover, the IC50 in data set [7] is less than 5 µM.

In the case of `CS(=O)(=O)CCNCc1ccc(-c2cc3c(Nc4ccc(OCc5cccc(F)c5)cc4)ncnc3cn2)o1` [Example 2, (4-(3-Fluorobenzyloxy)-phenyl)-(6-(5-((2-methanesulphonyl-ethylamino)methyl)-furan-2-yl)-pyrido[3,4-d]pyrimidin-4-yl)-amine dihydrochloride], the IC50 was less than 0.1 µM in data set [1]; less than 5 µM in data set [2]; less than 5 µM in data set [3]; less than 0.1 µM in data set [4]; less than 5 µM in data set [5]; 25 to 50 µM in data set [6]. Besides, the IC50 in data set [7] was less than 5 µM.

With `CS(=O)(=O)CCNCc1ccc(-c2cc3c(Nc4ccc(S(=O)(=O)c5ccccc5)cc4)ncnc3cn2)o1` [Example 3, (4-Benzenesulphonyl-phenyl)-(6-(5-((2-methanesulphonyl-ethylamino)-methyl)-furan-2-yl)-pyrido[3,4-d]pyrimidin-4-yl)-amine dihydrochloride], the IC50 in data set [1] was less than 0.1 µM; in data set [2], less than 5 µM; in data set [3] it was less than 5 µM; in data set [4], less than 0.1 µM; in data set [5], less than 5 µM; in data set [6], 25 to 50 µM. The IC50 in data set [7] is less than 5 µM.

Take `CS(=O)(=O)CCNCc1cccc(-c2cc3c(Nc4ccc(OCc5ccccc5)cc4)ncnc3cn2)c1` [Example 4, (4-Benzyloxy-phenyl)-(6-(3-((2-methanesulphonyl-ethylamino)-methyl)-phenyl)-pyrido[3,4-d]pyrimidin-4-yl)-amine dihydrochloride]: the IC50 in data set [1] was less than 0.1 µM; in data set [2], less than 5 µM; in data set [3], less than 5 µM; in data set [4], 0.1 to 1 µM; in data set [5], less than 5 µM; in data set [6] it was greater than 50 µM. Further, the IC50 in data set [7] was less than 5 µM.

In the case of `CS(=O)(=O)CCNCc1ccc(-c2ccc3ncnc(Nc4ccc(OCc5ccccc5)cc4)c3c2)o1` [Example 5, (4-Benzyloxyphenyl)-(6-(5-((2-methanesulphonyl-ethylamino)-methyl)-furan-2-yl)-quinazolin-4-yl)-amine dihydrochloride], the IC50 in data set [1] is less than 0.1 µM; in data set [2], less than 5 µM; in data set [3], less than 5 µM; in data set [4], less than 0.1 µM; in data set [5], less than 5 µM; in data set [6] it was greater than 50 µM. The IC50 in data set [7] is less than 5 µM.

Regarding `CS(=O)(=O)CCNCc1nc(-c2ccc3ncnc(Nc4ccc(OCc5ccccc5)cc4)c3c2)cs1` [Example 7, (4-Benzyloxy-phenyl)-(6-(2-((2-methanesulphonyl-ethylamino)-methyl)-thiazol-4-yl)-quinazolin-4-yl)-amine dihydrochloride], the IC50 was less than 0.1 µM in data set [1]; less than 5 µM in data set [2]; less than 5 µM in data set [3]; less than 0.1 µM in data set [4]; less than 5 µM in data set [5]; 5 to 25 µM in data set [6]. Further, the IC50 in data set [7] was less than 5 µM.

`CS(=O)(=O)CCNCc1ccc(-c2cc3c(Nc4ccc(S(=O)(=O)c5ccccc5)cc4)ncnc3cc2F)o1` [Example 36, N-[4-(Phenylsulphonyl)phenyl]-7-fluoro-6-[5-({[2-(methanesulphonyl)ethyl]amino]methyl)-2-furyl]-4-quinazolinamine]: the IC50 was 5 to 25 µM in data set [2]; 5 to 25 µM in data set [3]; less than 0.1 µM in data set [4]; 5 to 25 µM in data set [5]; greater than 50 µM in data set [6]; 5 to 25 µM in data set [7].

With `CS(=O)(=O)CCNCc1ccc(-c2ccc3ncnc(Nc4ccc(OCc5ccccc5)c(C(F)(F)F)c4)c3c2)o1` [Example 37], the IC50 in data set [2] is less than 5 µM; in data set [3] it was less than 5 µM; in data set [4], less than 0.1 µM; in data set [5] it was less than 5 µM; in data set [6] it was 25 to 50 µM; in data set [7], less than 5 µM.

As for `NCc1coc(-c2ccc3ncnc(Nc4ccc(OCc5ccccc5)cc4)c3c2)c1` [N-[4-(Benzyloxy)phenyl]-6-[4-(aminomethyl)-2-furyl]-4-quinazolinamine], the “identified as a major metabolite of N-[4-(benzyloxy)phenyl]-6-[4-({[2-(methanesulphonyl)ethyl]amino}methyl)-2-furyl]-4-quinazolinamine (Example 11)” value in data set [8] is “identified as a major metabolite”.
